Data on two compounds can be found in patent EP3061750A1, “PYRAZOLE AMIDE COMPOUND CONTAINING DIPHENYL ETHER, AND APPLICATION THEREOF, AND PESTICIDE COMPOSITION” (Central China Normal University, priority 2013, dated 2015).

Read-outs that look alike come from different tables or passages of the source.

Usually IC50 stands for the concentration at which inhibition is half-maximal.

The target of one experiment is T1, succinate dehydrogenase (Sus scrofa, UniProt A5GZW8+D0VWV4+Q007T0).
T1 construct: succinate dehydrogenase, which was isolated from pig hearts; from tissue; host or cells: pig heart
The experiment is described as follows: inhibitory activity on succinate dehydrogenase (DCIP reduction at 600 nm). The format is biochemical, pig. Here is the method: This test was used to determine the inhibitory activity on the succinate dehydrogenase of the compounds prepared in Example 1, Preparation Examples 1 and 2 .
The enzyme used in the test example was succinate dehydrogenase, which was isolated from pig hearts.
Test Method: total volume was 1.8ml, the system comprised 100mM Na2HPO4-NaH2PO4 buffer (pH7.4), 0.3mM EDTA, 20mM sodium succinate, 53µM DCIP (2,6-dichloro indophenol sodium), 2nM succinate dehydrogenase. In water bath with 23 °C of constant temperature and 600rpm magnetic stirring, the reduction of the light absorption of substrate DCIP was monitored at a wavelength of 600nm, the experimental points within the linear range were collected, that is, the experimental points in which the consumption of substrate was controlled not exceeding 5% were collected. The molar extinction coefficient of DCIP was 21mM^-1cm^-1. The reduction amount of DCIP during the reaction time was calculated and linear slope was fitted, and then the initial velocity of the reaction was obtained by deducting the baseline slope.

The test system of experiment [1] is Rice sheath blight (Rhizoctonia solani). Nature of the experiment: pot in vivo assay of bactericidal activity, rice sheath blight. The text has this:
(§1) This test is used to determine the bactericidal activity of the compounds prepared in Example 1, Preparation Examples 1 and 2.
(§2) The targets used in the test example are rice sheath blight and cucumber powdery mildew.
Test Method: According to "Standard Practice for determination of pesticide biological activity (SOP)", pyrazole amide compound containing diphenyl ether was dispensed to 5% emulsifiable concentrates (hereinafter referred to as 5% EC), the […] method (pot in vivo assay). The screening results on the two test targets of the compounds prepared in Example 1, Preparation Examples 1 and 2 were shown in Table 4.
Rice sheath blight (Rhizoctonia solani)
Two potted rice seedlings with uniform growth in true leaf stage were chosen, and dried by air after spray treatment. The side of bacteria cake with mycelium was closely attached on the leaves, after cultured at 22-26 °C under dark light in a moisture preserving manner for 24h, then cultured with natural light for about 4 days. The diameter of disease spot of each inoculating point was measured by using a caliper after the control material was fully attacked by disease, and the control effect was calculated.
(§3) Investigation method and grading standard adopted "Guidelines for the field efficacy trials of pesticides", and the control effect was calculated with the disease index. The disease index = Σ(number of diseased leaves at each grade×relative grade value) × 100/(total number of leaves×9); [formula] Control effect (%) = (disease index of control−disease index of treated) × 100/disease index of control. [formula]

Experiment [2] has as its system Cucumber powdery mildew (Sphaerotheca uliginea). The experiment is described as follows: pot in vivo assay of bactericidal activity, cucumber powdery mildew.
Description: as §1, §2
Test Method: According to "Standard Practice for determination of pesticide biological activity (SOP)", pyrazole amide compound containing diphenyl ether was dispensed to 5% emulsifiable concentrates (hereinafter referred to as 5% EC), […] method (pot in vivo assay). The screening results on the two test targets of the compounds prepared in Example 1, Preparation Examples 1 and 2 were shown in Table 4.
Cucumber powdery mildew (Sphaerotheca uliginea)
A cucumber seedling with uniform growth in true leaf stage was chosen, and dried in shade for 24h after spray treatment. Fresh cucumber powdery mildew spores on the cucumber leaves were collected and washed, and filtered through a double gauze to prepare a spore suspension with concentration of about 100,000 / ml, then spray inoculation was applied. The test materials inoculated were moved into artificial climate with relative humidity of 60-70% and temperature of 21-23 °C (indoor lighting), after about 10 days, investigating and grading were carried out according to the incidence of the blank control, and the control effect was calculated according to the disease index.
as §3

T1 sequence (Q007T0 29-280): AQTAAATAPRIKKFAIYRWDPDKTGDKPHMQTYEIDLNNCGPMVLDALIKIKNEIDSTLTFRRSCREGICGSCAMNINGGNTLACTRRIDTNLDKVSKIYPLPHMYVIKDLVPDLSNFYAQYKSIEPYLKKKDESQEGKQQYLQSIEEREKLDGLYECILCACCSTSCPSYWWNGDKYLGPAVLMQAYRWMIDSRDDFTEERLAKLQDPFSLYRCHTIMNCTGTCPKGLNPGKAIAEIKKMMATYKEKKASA
T1 sequence (D0VWV4 30-169): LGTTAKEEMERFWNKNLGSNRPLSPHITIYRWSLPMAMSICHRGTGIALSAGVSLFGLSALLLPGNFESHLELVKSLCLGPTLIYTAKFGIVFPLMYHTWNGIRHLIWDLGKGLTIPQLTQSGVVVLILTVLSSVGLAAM
T1 sequence (A5GZW8 57-159 limits assumed): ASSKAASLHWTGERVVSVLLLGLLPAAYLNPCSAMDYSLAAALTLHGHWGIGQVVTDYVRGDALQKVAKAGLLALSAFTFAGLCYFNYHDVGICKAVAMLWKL
T1 sequence (Q0QF01 43-664 partner): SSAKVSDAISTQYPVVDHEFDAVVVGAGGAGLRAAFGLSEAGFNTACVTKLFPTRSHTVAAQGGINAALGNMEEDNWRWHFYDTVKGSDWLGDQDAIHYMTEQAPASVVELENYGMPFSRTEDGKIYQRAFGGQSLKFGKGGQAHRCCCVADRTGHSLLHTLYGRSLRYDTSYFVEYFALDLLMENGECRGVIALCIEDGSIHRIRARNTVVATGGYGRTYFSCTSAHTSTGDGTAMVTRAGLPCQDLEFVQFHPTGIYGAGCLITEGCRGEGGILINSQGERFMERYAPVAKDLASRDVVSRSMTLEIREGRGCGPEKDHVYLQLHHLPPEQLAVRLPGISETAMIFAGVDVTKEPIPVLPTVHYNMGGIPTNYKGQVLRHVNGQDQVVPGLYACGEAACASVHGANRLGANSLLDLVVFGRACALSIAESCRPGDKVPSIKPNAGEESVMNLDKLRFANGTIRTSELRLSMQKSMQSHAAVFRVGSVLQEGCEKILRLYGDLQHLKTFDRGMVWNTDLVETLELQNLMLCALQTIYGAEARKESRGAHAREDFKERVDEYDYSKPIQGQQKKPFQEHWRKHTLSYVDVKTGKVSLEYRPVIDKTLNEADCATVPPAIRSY

`Cc1cc(C)cc(Oc2ccccc2NC(=O)c2cn(C)nc2C(F)F)c1` [III-16] yielded a 50% inhibitory concentration (IC50) on succinate dehydrogenase of 2030 ± 1220 nM. In addition, the pest or weed control at 200 µg/mL amounted to 50% in experiment [1] (Rhizoctonia solani, read-out: Efficacy(%) rice sheath blight) and 0% in experiment [2] (Cucumis sativus, read-out: Efficacy(%) cucumber powery mildew).

Regarding `Cc1nc(C(F)(F)F)c(C(=O)Nc2c(Br)cc(OC(F)(F)F)cc2Br)s1` [Thifluzamide, reference compound], the inhibition at 0.03 µM on succinate dehydrogenase (concentration 0.03 µM, read-out: inhibition ratio(%)) turned out to be 0%. In addition, the inhibition at 0.05 µM at succinate dehydrogenase (concentration 0.05 µM, read-out: inhibition ratio(%)) turned out to be 9.21%. For the same compound, the inhibition at 0.1 µM at succinate dehydrogenase (concentration 0.1 µM, read-out: inhibition ratio(%)) stood at 29.7%. For the same compound, the inhibition at 0.2 µM on succinate dehydrogenase (concentration 0.2 µM, read-out: inhibition ratio(%)) came out at 47.6%. In addition, the inhibition at 0.3 µM at succinate dehydrogenase (concentration 0.3 µM, read-out: inhibition ratio(%)) was 59.5%. The inhibition at 0.5 µM at succinate dehydrogenase (concentration 0.5 µM, read-out: inhibition ratio(%)) turned out to be 71.7%. Moreover, the inhibition at 1 µM on succinate dehydrogenase (concentration 1 µM, read-out: inhibition ratio(%)) is 77.9%. On succinate dehydrogenase (concentration 10 µM, read-out: inhibition ratio(%)), the inhibition at 10 µM was found to be 94.5%. Besides, the inhibition at 50 µM on succinate dehydrogenase (concentration 50 µM, read-out: inhibition ratio(%)) turned out to be 96.7%. For the same compound, the concentration for half-maximal inhibition (IC50) at succinate dehydrogenase (succinate dehydrogenase isolated from pig hearts, pH7.4, 23 °C, read-out: IC50) turned out to be 200 ± 12.1 nM. The “efficacy on rice sheath bilght(%)” value in experiment [1] (concentration 1.5 mg/L) is recorded as 0%; in experiment [1] (concentration 3.25 mg/L), 13.38%; in experiment [1] (concentration 6.25 mg/L) it was 54.30%; in experiment [1] (concentration 12.5 mg/L) it was 61.36%; in experiment [1] (concentration 25 mg/L), 81.85%; in experiment [1] (concentration 50 mg/L), 100%. In addition, the “efficacy on rice sheath bilght(%)” value in experiment [1] (concentration 100 mg/L) is 100%. For the same compound, the “efficacy on cucumber powery mildew(%)” value in experiment [2] (concentration 12.5 mg/L) was 0%; in experiment [2] (concentration 25 mg/L), 22.22%; in experiment [2] (concentration 50 mg/L) it was 62.96%; in experiment [2] (concentration 100 mg/L), 100%.
